{"source": "patent US20150031643A1", "about": "“COMBINATION TREATMENT OF ACUTE MYELOID LEUKEMIA AND MYELODYSPLASTIC SYNDROME II” (Boehringer Ingelheim International GmbH, priority 2013, published 2015)", "system": "human AML cell line MV4;11", "test": "Nude mouse xenograft model derived from human AML cell line MV4;11: tumor growth", "type": "in vivo, mice", "conditions": "treated for 19 days", "experimental": "MV4;11 (CRL-9591) cells were obtained from ATCC. According to the Catalogue of Somatic Mutations in Cancer of the Wellcome Trust Sanger Institute, UK, this cell line carries a mutation in the FLT3 gene. Cells were cultured in T175 tissue culture flasks at 37° C. and 5% CO2. The medium used was IMDM supplemented with 10% fetal calf serum, 1% NEAA, 1% sodium pyruvate and 1% glutamine.\nTo establish subcutaneous tumors, MV4;11 cells were harvested and resuspended in PBS+5% FCS at 5×10^7 cells/ml. 50 μl of the cell suspension containing 2.5×10^6 cells was then injected subcutaneously into the right flank of the mice (1 site per mouse). Growth factor reduced BD Matrigel™ Matrix (BD Biosciences) was added to the cell suspension at a ratio of 1:1 before the injection. When tumors were well established and had reached a tumor volume of ˜120 mm^3, mice were randomly distributed between the treatment and the vehicle control groups 14 days after injecting the cells.\nThe solution was freshly made up each injection day.\nThe application solution was prepared on each injection day.\nAnimals were treated for 19 days."}
{"smiles": "CC[C@@H]1C(=O)N(C)c2cnc(Nc3ccc(C(=O)N[C@H]4CC[C@H](N5CCN(CC6CC6)CC5)CC4)cc3OC)nc2N1C(C)C", "note": "[Volasertib, N-[trans-4-[4-(cyclopropylmethyl)-1-piperazinyl]cyclohexyl]-4-[[(7R)-7-ethyl-5,6,7,8-tetrahydro-5-methyl-8-(1-methylethyl)-6-oxo-2-pteridinyl]amino]-3-methoxy-benzamide]", "values": [{"measurement": "T/C (ratio of median tumor volume of treated vs. control tumors)", "setting": "Example 1, Volasertib alone 10 mg/kg once weekly i.v.", "result": 79, "unit": "%"}, {"measurement": "T/C (ratio of median tumor volume of treated vs. control tumors)", "setting": "Example 2, Volasertib alone 20 mg/kg once weekly i.v.", "result": 39, "unit": "%"}]}
{"smiles": "Nc1ncn([C@@H]2O[C@H](CO)[C@@H](O)[C@H]2O)c(=O)n1", "note": "[azacitidine, Azacitidine]", "values": [{"measurement": "T/C (ratio of median tumor volume of treated vs. control tumors)", "setting": "Example 1, Azacitidine alone 40 mg/kg once weekly i.v.", "result": 78, "unit": "%"}, {"measurement": "T/C (ratio of median tumor volume of treated vs. control tumors)", "setting": "Example 2, Azacitidine alone 40 mg/kg once weekly i.v.", "result": 78, "unit": "%"}]}
